Assay results from patent US12247018B2, “Aryl-n-aryl derivatives for treating a RNA virus infection” (ABIVAX, priority 2018, dated 2025).

system: RSV A2; assay: RSV inhibition (cytopathic effect) in HEp-2 cells using Viral ToxGlo assay; assay type: cell-based; conditions: human respiratory syncytial virus; RSV A2, HEp-2 cells, MOI 0.5, 72 h p.i.
Description: Protocol for Screening Antiviral Compounds for RSV Inhibition and Cytotoxicity Using Viral ToxGlo Assay
HEp-2 cells were maintained in Eagle's minimum essential medium (EMEM) with Earle's BSS adjusted to contain 2 mM L-glutamine, 10% fetal bovine serum, 100 U/ml penicillin and 100 μg/ml streptomycin. For the purposes of the screening assay they were grown to 90% confluency, trypsinized and recovered. The trypsin was neutralised with cell culture media and cells were centrifuged at 150×g for 5 minutes before discarding the supernatant and resuspending cell pellet in assay media (EMEM with Earle's BSS adjusted to contain 2 mM L-glutamine, 2% fetal bovine serum and 100 U/ml penicillin and 100 μg/ml streptomycin). The cells were seeded into white clear-bottomed cell culture plates at a density of 1.5×10^4 cells/well in 50 μl and 4×10^3 cells/well in 25 μl for 96 well plates and 384 well plates respectively. For the media/background control column assay media only was added. Cell plates were placed in a humid chamber and incubated overnight at 37° C./5% CO2. After overnight incubation cells were checked for confluency and healthy appearance.
Test articles were made up at 10× test concentration in a maximum DMSO concentration of 10% (final assay concentration maximal 1% DMSO) and added to the cell plates in volumes of 10 μl for 96 well plates and 5 μl for 384 well plates. For cell control and virus control wells the test article solvent only was added. Virus or assay media for cytotoxicity test wells and media/cell control wells was added immediately after test articles at an MOI of 0.5, 40 or 20 μl for 96 and 384 well plates respectively. Virus suspension was prepared by thawing RSV A2 frozen stocks and diluting to the required concentration of plaque forming units in assay media on ice.
Cell plates were further incubated inside a humid chamber for 72 h p.i at 37° C./5% CO2. After the incubation period cells were observed under the microscope to check for characteristic cytopathic effect in virus control wells and healthy cells in the cell control wells. After plates were adjusted to room temperature 20/40 μl Viral ToxGlo (Promega) was added to each well of the 384/96 well cell plates. Plates were incubated at room temperature, protected from light on a plate rocker for 20 minutes before measuring the luminescence on a spectrophotometer (Biotek Synergy HTX).

Row | SMILES | EC50 [nM]
1 | CC1CN1C(=O)c1cccc(Nc2ccc(C(=O)N=C3NCCCN3)cc2C2CC2)c1 (stereo not drawn) [compound 162, 3-cyclopropyl-N-(1,3-diazinan-2-ylidene)-4-{[3-(2-methylaziridine-1-carbonyl)phenyl]amino}benzamide] | 1370
2 | O=C(N=C1NCCCN1)c1ccc(Nc2cccc(C(O)CCCC3CCCCC3)c2)c(C2CC2)c1 (stereo not drawn) [compound 103, 4-{[3-(4-cyclohexyl-1-hydroxybutyl)phenyl]amino}-3-cyclopropyl-N-(1,3-diazinan-2-ylidene)benzamide] | 44
3 | O=C(N=C1NCCCN1)c1ccc(Nc2cccc(OC(F)(F)F)c2)c(C2CC2)c1 [compound 137, 3-cyclopropyl-N-(1,3-diazinan-2-ylidene)-4-{[3-(trifluoromethoxy)phenyl]amino}benzamide] | 304
4 | O=C(N=C1NCCCN1)c1ccc(Nc2cccc(C(=O)NC3CC(F)(F)C3)c2)c(C2CC2)c1 [compound 152, 3-cyclopropyl-N-(1,3-diazinan-2-ylidene)-4-({3-[(3,3-difluorocyclobutyl)carbamoyl]phenyl}amino)benzamide] | 593
5 | CC(C)CCS(=O)(=O)Nc1cccc(Nc2ccc(C(=O)/N=C3\NCCC(=O)N3)cc2C(C)(C)C)c1 [compound 94, 3-tert-butyl-4-{[3-(3-methylbutanesulfonamido)phenyl]amino}-N-[(2E)-4-oxo-1,3-diazinan-2-ylidene]benzamide] | 17
6 | CC1(C)CN1C(=O)c1cccc(Nc2ccc(C(=O)N=C3NCCCN3)cc2C2CC2)c1 [compound 154, 3-cyclopropyl-N-(1,3-diazinan-2-ylidene)-4-{[3-(2,2-dimethylaziridine-1-carbonyl)phenyl]amino}benzamide] | 917
7 | O=C(N=C1NCCCN1)c1ccc(Nc2cccc(S(=O)(=O)CCCC3CCCCC3)c2)c(C2CC2)c1 [compound 143, 4-{[3-(3-cyclohexylpropanesulfonyl)phenyl]amino}-3-cyclopropyl-N-(1,3-diazinan-2-ylidene)benzamide] | 398
8 | CC(C)CCNC(=O)c1cccc(Nc2ccc(C(=O)N=C3NCCCN3)cc2C2CC2)c1 [compound 113, 3-cyclopropyl-N-(1,3-diazinan-2-ylidene)-4-({3-[(3-methylbutyl)carbamoyl]phenyl}amino)benzamide] | 102
9 | O=C(N=C1NCCCN1)c1ccc(Nc2cccc(OC(F)F)c2)c(C2CC2)c1 [compound 112, 3-cyclopropyl-N-(1,3-diazinan-2-ylidene)-4-{[3-(difluoromethoxy)phenyl]amino}benzamide] | 97
10 | O=C(N=C1NCCCN1)c1ccc(Nc2cccc(OCC(F)F)c2)c(C2CC2)c1 [compound 125, 3-cyclopropyl-N-(1,3-diazinan-2-ylidene)-4-{[3-(2,2-difluoroethoxy)phenyl]amino}benzamide] | 151
11 | CC(C)CCN(C)C(=O)c1cccc(Nc2ccc(C(=O)N=C3NCCCN3)cc2C2CC2)c1 [compound 118, 3-cyclopropyl-N-(1,3-diazinan-2-ylidene)-4-({3-[methyl(3-methylbutyl)carbamoyl]phenyl}amino)benzamide] | 126
12 | CCC(CC)NC(=O)c1cccc(Nc2ccc(C(=O)N=C3NCCCN3)cc2C2CC2)c1 [compound 110, 3-cyclopropyl-N-(1,3-diazinan-2-ylidene)-4-({3-[(pentan-3-yl)carbamoyl]phenyl}amino)benzamide] | 80
13 | CC(C)C(=O)Nc1cccc(Nc2ccc(C(=O)/N=C3\NCCC(=O)N3)cc2C2CC2)c1 [compound 116, 3-cyclopropyl-4-{[3-(2-methylpropanamido)phenyl]amino}-N-[(2E)-4-oxo-1,3-diazinan-2-ylidene]benzamide] | 122
14 | O=C(N=C1NCCCN1)c1ccc(Nc2cccc(OCCCC3CCCCC3)c2)c(C2CC2)c1 [compound 115, 4-{[3-(3-cyclohexylpropoxy)phenyl]amino}-3-cyclopropyl-N-(1,3-diazinan-2-ylidene)benzamide] | 110
15 | O=C(N=C1NCCCN1)c1ccc(Nc2cccc(C(=O)NCCC3CCOCC3)c2)c(C2CC2)c1 [compound 126, 3-cyclopropyl-N-(1,3-diazinan-2-ylidene)-4-[(3-{[2-(oxan-4-yl)ethyl]carbamoyl}phenyl)amino]benzamide] | 165
16 | O=C1CCN/C(=N\C(=O)c2ccc(Nc3cccc(OCC4CCCCO4)c3)c(C3CC3)c2)N1 (stereo not drawn) [compound 151, 3-cyclopropyl-4-({3-[(oxan-2-yl)methoxy]phenyl}amino)-N-[(2E)-4-oxo-1,3-diazinan-2-ylidene]benzamide] | 525
17 | O=C(N=C1NCCCN1)c1ccc(Nc2cccc(-n3cc(CC4CCCCC4)nn3)c2)c(C2CC2)c1 [compound 119, 4-({3-[4-(cyclohexylmethyl)-1H-1,2,3-triazol-1-yl]phenyl}amino)-3-cyclopropyl-N-(1,3-diazinan-2-ylidene)benzamide] | 130
18 | O=C(N=C1NCCCN1)c1ccc(Nc2cccc(OCCC3CCCCC3)c2)c(C2CC2)c1 [compound 130, 4-{[3-(2-cyclohexylethoxy)phenyl]amino}-3-cyclopropyl-N-(1,3-diazinan-2-ylidene)benzamide] | 234
19 | Cc1c(Nc2ccc(C(=O)N=C3NCCCN3)cc2C2CC2)cccc1C(=O)NC1(C#N)CC1 [compound 165, 4-({3-[(1-cyanocyclopropyl)carbamoyl]-2-methylphenyl}amino)-3-cyclopropyl-N-(1,3-diazinan-2-ylidene)benzamide] | 1760
20 | O=C(CCC1CCCCC1)Nc1cc(Nc2ccc(C(=O)N=C3NCCCN3)cc2C(F)(F)F)ccc1F [compound 148, 4-{[3-(3-cyclohexylpropanamido)-4-fluorophenyl]amino}-N-(1,3-diazinan-2-ylidene)-3-(trifluoromethyl)benzamide] | 463
21 | CC(C)CCCNC(=O)c1cccc(Nc2ccc(C(=O)N=C3NCCCN3)cc2C2CC2)c1 [compound 105, 3-cyclopropyl-N-(1,3-diazinan-2-ylidene)-4-({3-[(4-methylpentyl)carbamoyl]phenyl}amino)benzamide] | 62
22 | O=C1CCN/C(=N\C(=O)c2ccc(Nc3cccc(OCCCC4CCCCC4)c3)c(C3CC3)c2)N1 [compound 97, 4-{[3-(3-cyclohexylpropoxy)phenyl]amino}-3-cyclopropyl-N-[(2E)-4-oxo-1,3-diazinan-2-ylidene]benzamide] | 25
23 | CC1(NC(=O)c2cccc(Nc3ccc(C(=O)N=C4NCCCN4)cc3C3CC3)c2)CC1 [compound 99, 3-cyclopropyl-N-(1,3-diazinan-2-ylidene)-4-({3-[(1-methylcyclopropyl)carbamoyl]phenyl}amino)benzamide] | 34
24 | O=C1CCN/C(=N\C(=O)c2ccc(Nc3cccc(C(=O)N4CCOCC4)c3Cl)c(C3CC3)c2)N1 [compound 95, 4-{[2-chloro-3-(morpholine-4-carbonyl)phenyl]amino}-3-cyclopropyl-N-[(2E)-4-oxo-1,3-diazinan-2-ylidene]benzamide] | 19
25 | O=C(N=C1NCCCN1)c1ccc(Nc2cccc(-c3nnn(CCCC4CCCCC4)n3)c2)c(C2CC2)c1 [compound 149, 4-({3-[2-(3-cyclohexylpropyl)-2H-1,2,3,4-tetrazol-5-yl]phenyl}amino)-3-cyclopropyl-N-(1,3-diazinan-2-ylidene)benzamide] | 494
26 | CCC(C)NC(=O)c1cccc(Nc2ccc(C(=O)N=C3NCCCN3)cc2C2CC2)c1 (stereo not drawn) [compound 101, 4-({3-[(butan-2-yl)carbamoyl]phenyl}amino)-3-cyclopropyl-N-(1,3-diazinan-2-ylidene)benzamide] | 40
27 | O=C(N=C1NCCCN1)c1ccc(Nc2cccc(C(=O)N3CCOCC3)c2)c(C2CC2)c1 [compound 158, 3-cyclopropyl-N-(1,3-diazinan-2-ylidene)-4-{[3-(morpholine-4-carbonyl)phenyl]amino}benzamide] | 1030
28 | CN(C)C(=O)c1cccc(Nc2ccc(C(=O)N=C3NCCCN3)cc2C2CC2)c1 [compound 163, 3-cyclopropyl-N-(1,3-diazinan-2-ylidene)-4-{[3-(dimethylcarbamoyl)phenyl]amino}benzamide] | 1470
29 | O=C(N=C1NCCCN1)c1ccc(Nc2cc(C(=O)NCCC3CCCCC3)ccn2)c(C(F)(F)F)c1 [compound 111, N-(2-cyclohexylethyl)-2-({4-[(1,3-diazinan-2-ylidene)carbamoyl]-2-(trifluoromethyl)phenyl}amino)pyridine-4-carboxamide] | 86
30 | O=C1CCN/C(=N\C(=O)c2ccc(Nc3cccc(C(=O)N4CCOCC4)c3)c(C3CC3)c2)N1 [compound 164, 3-cyclopropyl-4-{[3-(morpholine-4-carbonyl)phenyl]amino}-N-[(2E)-4-oxo-1,3-diazinan-2-ylidene]benzamide] | 1500
